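Assay format: 96-well plates, 48-hour exposure. GI50 is the concentration that inhibits growth by half.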 Calls of active or inactive are those of the source. Rule as the data show it: active = GI50 up to about 1.1 µM and inactive = higher.
Legend:
Assay in all cases: NCI-60 cell line screen, 48 h
NCI-H226 = tested on: NCI-H226
HT-29 = tested on: HT-29
MDA-MB-231 = tested on: MDA-MB-231
OVCAR-3 = tested on: OVCAR-3
IGROV-1 = tested on: IGROV-1
NCI-H522 = tested on: NCI-H522
EKVX = tested on: EKVX
U-251 = tested on: U-251
PC-3 = tested on: PC-3
RXF 393 = tested on: RXF 393
TK-10 = tested on: TK-10
SR = tested on: SR
A549 = tested on: A549
UO-31 = tested on: UO-31
SF-295 = tested on: SF-295
HCT-116 = tested on: HCT-116
SN12C = tested on: SN12C
ACHN = tested on: ACHN
DU-145 = tested on: DU-145

Compound	GI50 (NCI-H226)	GI50 (HT-29)	GI50 (MDA-MB-231)	GI50 (OVCAR-3)	GI50 (IGROV-1)	GI50 (NCI-H522)	GI50 (EKVX)	GI50 (U-251)	GI50 (PC-3)	GI50 (RXF 393)	GI50 (TK-10)	GI50 (SR)	GI50 (A549)	GI50 (UO-31)	GI50 (SF-295)	GI50 (HCT-116)	GI50 (SN12C)	GI50 (ACHN)	GI50 (DU-145)
C#CCOC(=O)C(N)CCSC (stereo not drawn)	> 100 µM (inactive)	> 100 µM (inactive)	> 100 µM (inactive)	> 100 µM (inactive)	> 100 µM (inactive)	> 100 µM (inactive)	> 100 µM (inactive)	> 100 µM (inactive)	> 100 µM (inactive)	> 100 µM (inactive)	> 100 µM (inactive)	> 100 µM (inactive)	> 100 µM (inactive)	> 100 µM (inactive)	> 100 µM (inactive)	> 100 µM (inactive)	> 100 µM (inactive)	> 100 µM (inactive)	> 100 µM (inactive)
CCOC1OC(CO[Si](C)(C)C(C)(C)C)C(O)CC1n1ccc(=O)[nH]c1=O (stereo not drawn)	> 100 µM (inactive)	47.5 µM (inactive)	67 µM (inactive)	43.8 µM (inactive)	21.5 µM (inactive)	20.6 µM (inactive)	> 100 µM (inactive)	> 100 µM (inactive)	64.7 µM (inactive)	30.8 µM (inactive)	> 100 µM (inactive)	42.6 µM (inactive)	51.5 µM (inactive)	> 100 µM (inactive)	> 100 µM (inactive)	17.1 µM (inactive)	> 100 µM (inactive)	> 100 µM (inactive)	> 100 µM (inactive)
Cn1c([N+](=O)[O-])cnc1CN1CCN(CCO)CC1	> 100 µM (inactive)	> 100 µM (inactive)	> 100 µM (inactive)	> 100 µM (inactive)	> 100 µM (inactive)	> 100 µM (inactive)	> 100 µM (inactive)	> 100 µM (inactive)	> 100 µM (inactive)	> 100 µM (inactive)	> 100 µM (inactive)	> 100 µM (inactive)	> 100 µM (inactive)	> 100 µM (inactive)	> 100 µM (inactive)	> 100 µM (inactive)	> 100 µM (inactive)	> 100 µM (inactive)	> 100 µM (inactive)
CC1(CC(=O)O)OC2CCCCCC2O1.NCc1ccccc1 (stereo not drawn)	> 100 µM (inactive)	64.1 µM (inactive)	> 100 µM (inactive)	> 100 µM (inactive)	> 100 µM (inactive)	> 100 µM (inactive)	20.2 µM (inactive)	91.4 µM (inactive)	> 100 µM (inactive)	> 100 µM (inactive)	> 100 µM (inactive)	> 100 µM (inactive)	> 100 µM (inactive)	> 100 µM (inactive)	> 100 µM (inactive)	74.8 µM (inactive)	> 100 µM (inactive)	> 100 µM (inactive)	> 100 µM (inactive)
N#Cc1ccc(-n2c3ccccc3c3ccc4c(c32)C(=O)C=CC4=O)cc1	24.3 µM (inactive)	1.66 µM (inactive)	2.51 µM (inactive)	3.27 µM (inactive)	5.25 µM (inactive)	0.11 µM (active)	1.91 µM (inactive)	4.56 µM (inactive)	3.06 µM (inactive)	2.39 µM (inactive)	3.4 µM (inactive)	1.46 µM (inactive)	16.9 µM (inactive)	1.45 µM (inactive)	14 µM (inactive)	2.42 µM (inactive)	3.65 µM (inactive)	1.56 µM (inactive)	3.6 µM (inactive)
COc1ccc(Oc2cccc(C3C4C(=O)N(c5ccc(C)c(Cl)c5)C(=O)C4ON3C(C(N)=O)c3ccccc3)c2)cc1 (stereo not drawn)	15.6 µM (inactive)	9.33 µM (inactive)	34 µM (inactive)	16.7 µM (inactive)	18.8 µM (inactive)	10.6 µM (inactive)	10.4 µM (inactive)	16.6 µM (inactive)	18.9 µM (inactive)	7.6 µM (inactive)	19.4 µM (inactive)	9.98 µM (inactive)	20.9 µM (inactive)	29.6 µM (inactive)	35.9 µM (inactive)	14 µM (inactive)	12.4 µM (inactive)	23.5 µM (inactive)	9.59 µM (inactive)
CCOc1ccnc2c(OC)c(C)c3nc4ccccc4nc3c12	> 100 µM (inactive)	72.8 µM (inactive)	> 100 µM (inactive)	> 100 µM (inactive)	52.1 µM (inactive)	> 100 µM (inactive)	> 100 µM (inactive)	> 100 µM (inactive)	89.3 µM (inactive)	8.39 µM (inactive)	> 100 µM (inactive)	18.6 µM (inactive)	> 100 µM (inactive)	> 100 µM (inactive)	> 100 µM (inactive)	> 100 µM (inactive)	> 100 µM (inactive)	> 100 µM (inactive)	41 µM (inactive)
COC12OC3(C4OC41)C(C(=O)O[C@H]3CO[Si](C)(C)C(C)(C)C)C2S(=O)(=O)c1ccccc1 (stereo partly drawn)	> 100 µM (inactive)	–	> 4.65 µM (inactive)	> 100 µM (inactive)	–	17.1 µM (inactive)	> 4.65 µM (inactive)	> 4.65 µM (inactive)	> 4.65 µM (inactive)	< 0.01 µM (active)	4.06 µM (inactive)	2.63 µM (inactive)	> 4.65 µM (inactive)	> 4.65 µM (inactive)	> 25.5 µM (inactive)	4.16 µM (inactive)	> 4.65 µM (inactive)	2.69 µM (inactive)	> 4.65 µM (inactive)
CCC1=CC(OCc2ccccc2)C(CCN(Cc2ccccc2)C(=O)OCc2ccccc2)C1 (stereo not drawn)	15.7 µM (inactive)	17.9 µM (inactive)	18.5 µM (inactive)	14.2 µM (inactive)	15.6 µM (inactive)	11.7 µM (inactive)	16.1 µM (inactive)	19.8 µM (inactive)	14.3 µM (inactive)	3.5 µM (inactive)	16.5 µM (inactive)	17.3 µM (inactive)	15.5 µM (inactive)	14.6 µM (inactive)	14.8 µM (inactive)	–	–	15.3 µM (inactive)	16.4 µM (inactive)
CC(=O)OC12CC(C(F)(F)F)(C(F)(F)F)OC1(OC(C)=O)CC(C(F)(F)F)(C(F)(F)F)O2 (stereo not drawn)	6.17 µM (inactive)	5.28 µM (inactive)	6.34 µM (inactive)	2.02 µM (inactive)	1.41 µM (inactive)	1.24 µM (inactive)	–	1.63 µM (inactive)	0.805 µM (active)	11.5 µM (inactive)	8.28 µM (inactive)	2.55 µM (inactive)	1.26 µM (inactive)	1.36 µM (inactive)	6.76 µM (inactive)	3.66 µM (inactive)	4.66 µM (inactive)	0.287 µM (active)	4.06 µM (inactive)
N#C[BH2-][n+]1cn(C2CC(O)C(COP(=O)(O)OC3CC(n4cnc5c(=O)[nH]c(N)nc54)OC3CO)O2)c2nc(N)[nH]c(=O)c21 (stereo not drawn)	23.1 µM (inactive)	> 100 µM (inactive)	> 100 µM (inactive)	> 100 µM (inactive)	22 µM (inactive)	> 100 µM (inactive)	> 100 µM (inactive)	> 100 µM (inactive)	66.4 µM (inactive)	97.3 µM (inactive)	–	1 µM (active)	> 100 µM (inactive)	> 100 µM (inactive)	> 100 µM (inactive)	> 100 µM (inactive)	> 100 µM (inactive)	> 100 µM (inactive)	> 100 µM (inactive)
